Consider one compound from patent EP0801949A1, “Hypoglycemic quinone derivative” (Eisai Co., Ltd., priority 1996, dated 1997).

Molecules are shown by their SMILES.

Type in all cases: in vivo
Data set [1] relates to KK-Ay/Ta mice. Description: Blood sugar level in type-II diabetes model mice, oral dosing twice daily for 14 days. The note with it: for Blood sugar level: male KK-Ay/Ta mice, average ± standard error, N=6. An excerpt:
(§1) Use was made of 22-week old male KK-Ay/Ta mice (type-II diabetes model mice available from Clea Japan Inc.). Restricted feeding was effected such that the animals were starved from 9:00 a.m. to 5:00 p.m. daily through the experimental period.
(§2) (E)-3-[2-(5,6-Dimethoxy-3-methyl-1,4-benzoquinonyl)]-2-nonylpropenoic acid as a representative example of the compounds of the present invention was suspended in 0.5% methylcellulose (MC) and orally administered twice 9:00 a.m. and 5:00 p.m. daily for 14 days in accordance with the following schedule.
(§3) The 0.5% methylcellulose (MC) was administered to a control group in the same manner as above.
(§4) All blood specimens were collected from the cardal veins, and blood sugar and blood insulin levels were measured on the day preceding the administration (day 0) and 3 days (day 3), 7 days (day 7), 10 days (day 10) and 14 days (day 14) after the administration. Hemoglobin AIc (HbAIc) was measured on day 0 and day 14. The measurements of blood sugar level, blood insulin level and HbAIc were conducted by the use of Fuji Dry-Chem System 5500 (manufactured by Fuji Medical Systems Co., Ltd.), insulin measuring kit (EIA sandwich method, manufactured by Morinaga Seikagaku Kenkyusho) and DCA 2000 System (manufactured by Bayer Diagnosics), respectively. The results are expressed by the average ± standard error with respect to each group. The significant difference test as compared with the control group was performed by the Student t-test.

The subject of data set [2] is KK-Ay/Ta mice. In words: Hemoglobin AIc (HbAIc) in type-II diabetes model mice, oral dosing twice daily for 14 days. Particulars: 300 mg/Kg/day p.o. for 14 days, KK-Ay/Ta mice (Table 3).
From the text: as §1, §2, §3
as §4, with “The significant difference test as compared with the control group was performed by the Student t-test.” left out

The next data set concerns SD rat. In words: Single administration toxicity test in rat (lethal dose). The note with it: observed for 14 days. An excerpt:
(§5) (E)-3-[2-(5,6-Dimethoxy-3-methyl-1,4-benzoquinonyl)]-2-nonylpropenoic acid was used as a test compound.

The next data set deals with beagle. Description: Single administration toxicity test in beagle (lethal dose). The note with it: p.o., observed for 21 days.
From the text: as §5

For the compound `CCCCCCCCC/C(=C\C1=C(C)C(=O)C(OC)=C(OC)C1=O)C(=O)O` [invention compd., (E)-3-[2-(5,6-Dimethoxy-3-methyl-1,4-benzoquinonyl)]-2-nonylpropenoic acid], in the data set with KK-Ay/Ta mice [1] (300 mg/Kg/day p.o. for 14 days, KK-Ay/Ta mice, compared with the control group (Table 2, Fig. 1)), the “hypoglycemic effect (in words)” value is on record as “excellent hypoglycemic effect”. Further, the Blood sugar level was found to be 465.7 ± 21.51 mg/dL with KK-Ay/Ta mice [1] (Day 0 (day preceding the administration, baseline)); 465.7 ± 21.51 mg/dL in the data set with KK-Ay/Ta mice [1] (Day 0 (day preceding the administration, baseline), listed as the compound of the present invention); 380.8 ± 52.42 mg/dL in the data set on KK-Ay/Ta mice [1] (Day 3, 300 mg/Kg/day p.o. (100 a.m. + 200 p.m.), 300 mg/kg/day); 380.8 ± 52.42 mg/dL in the data set on KK-Ay/Ta mice [1] (Day 3, 300 mg/Kg/day p.o. (100 a.m. + 200 p.m.), listed as the compound of the present invention, 300 mg/kg/day); 319.8 ± 27.49 mg/dL with KK-Ay/Ta mice [1] (Day 7, 300 mg/Kg/day p.o. (100 a.m. + 200 p.m.), 300 mg/kg/day); 319.8 ± 27.49 mg/dL in the data set on KK-Ay/Ta mice [1] (Day 7, 300 mg/Kg/day p.o. (100 a.m. + 200 p.m.), listed as the compound of the present invention, 300 mg/kg/day). For the same compound, the Blood sugar level in the data set on KK-Ay/Ta mice [1] (Day 10, 300 mg/Kg/day p.o. (100 a.m. + 200 p.m.), 300 mg/kg/day) turned out to be 334.3 ± 33.75 mg/dL; with KK-Ay/Ta mice [1] (Day 10, 300 mg/Kg/day p.o. (100 a.m. + 200 p.m.), listed as the compound of the present invention, 300 mg/kg/day) it was 334.3 ± 33.75 mg/dL; in the data set on KK-Ay/Ta mice [1] (Day 14, 300 mg/Kg/day p.o. (100 a.m. + 200 p.m.), 300 mg/kg/day) it was 280.2 ± 37.31 mg/dL; in the data set on KK-Ay/Ta mice [1] (Day 14, 300 mg/Kg/day p.o. (100 a.m. + 200 p.m.), listed as the compound of the present invention, 300 mg/kg/day), 280.2 ± 37.31 mg/dL. The “HbAIc change as compared with the control group (in words)” value in the data set on KK-Ay/Ta mice [2] was “decrease trend”. Also, the Lethal dose in the data set on SD rat (i.v.) was above 60 mg/kg; in the data set on SD rat (p.o.) it was 2000 mg/kg; in the data set with beagle, above 400 mg/kg.
